Where two headings read alike, the source gives them in different places.

The test system of series [1] is maximum electroshock spasm (MES) in male mice (NMRI). The experiment in a line: MES test (maximum electroshock spasm), inhibition of the extensor spasm. The conditions noted are these: for responders at 100 mg/kg / ED50 / responders at 50 mg/kg: Mus musculus; for responders at 100 mg/kg / responders at 50 mg/kg: read-out: protective action after 1 hr. (MES test); for ED50: read-out: ED 50 in the MES test. The class given is in vivo.

The test system of series [2] is rats. The series can be described thus: Orientating toxicological investigations on rats. The class given is in vivo. The settings on record: up to an oral dosage of 1000 mg./kg.
A short description of series [3]: Neurotoxicity observation (motility, muscle tonus, respiratory frequency, body temperature, general behaviour). Set-up: species or system mice (NMRI). The conditions noted are these: mouse, in vivo, po. As to the method: During the above-described experiments, the animals were observed during the whole of the experimental period (up to 4 hours) for signs of substance-caused changes of behaviour and neurotoxicity (motility, muscle tonus, respiratory frequency, body temperature and general behaviour).

[4] abbreviates: po, 100 mg/kg p.o., mice, 1 hr., % of animals protected 100% against the extensor spasm.
The mark [5] stands for this setting: oral, mice, 1 hour after administration.
Where [6] appears, read: read-out: Neurotoxic limiting dose in the mouse.

In the case of `COC1=CC(=O)O[C@H]1[C@H](O)c1ccccc1Cl` (relative stereo) [Example 64, threo-5-(2-chlorophenylhydroxymethyl)-4-methoxy-2(5H)-furanone], in series [1] (setting [4]), the responders at 100 mg/kg is 100%. In addition, the ED50 in series [1] (setting [5]) was determined as 19.8 mg/kg. For the same compound, the mortality of rats entry in series [2] is “no mortality of the animals”.

For `COC1=CC(=O)O[C@H]1[C@H](O)c1ccccc1` (relative stereo) [Example 65, threo-4-methoxy-5-phenylhydroxymethyl-2(5H)-furanone], in series [1] (setting [4]), the responders at 100 mg/kg worked out at 79%. Also, the ED50 in series [1] (setting [5]) is 69 mg/kg. Also, the mortality of rats entry in series [2] is listed as “no mortality of the animals”.

On to `COC1=CC(=O)O[C@H]1[C@H](O)c1ccc(Cl)cc1Cl` (relative stereo) [Example 79, threo-5-(2,4-dichlorophenylhydroxymethyl)-4-methoxy-2(5H)-furanone], for which the responders at 100 mg/kg in series [1] (setting [4]) worked out at 60%. Also, the ED50 in series [1] (setting [5]) amounted to 82.5 mg/kg. Further, the mortality of rats entry in series [2] is “no mortality of the animals”.

Consider `COC1=CC(=O)O[C@H]1[C@H](O)c1cc(Cl)ccc1Cl` (relative stereo) [Example 81, threo-5-(2,5-dichlorophenylhydroxymethyl)-4-methoxy-2(5H)-furanone], for which the responders at 100 mg/kg in series [1] (setting [4]) was 100%. Moreover, the ED50 in series [1] (setting [5]) came out at 19.5 mg/kg. In addition, the mortality of rats result in series [2] is on record as “no mortality of the animals”.

As to `COC1=CC(=O)O[C@H]1[C@H](OC)c1ccccc1F` (relative stereo) [Example 123, threo-4-methoxy-5-[methoxy-(2-fluorophenyl)-methyl]-2(5H)-furanone], the responders at 50 mg/kg in series [1] (po, 50 mg/kg p.o., mice, 1 hr.) came to 100%.

Consider `COC1=CC(=O)O[C@H]1[C@H](OC)c1ccccc1Br` (relative stereo) [Example 124, threo-4-methoxy-5-[methoxy-(2-bromophenyl)-methyl]-2(5H)-furanone], for which, in series [1] (po, 50 mg/kg p.o., mice, 1 hr.), the responders at 50 mg/kg was determined as 100%.

Turning to `CCC1(C)CC(=O)NC1=O` (stereo not shown) [Ethosuximide, reference compound], the responders at 100 mg/kg in series [1] (setting [4]) is 0%. Further, the ED50 in series [1] (setting [5]) is greater than 250 mg/kg. The TD50 in series [3] was 500 mg/kg.

For `COCC(OC)O[C@H](c1ccccc1Cl)[C@@H]1OC(=O)C=C1OC` (stereo partly drawn) [Example 121, threo-5-[1',2'-dimethoxyethoxy-(2-chlorophenyl)-methyl]-4-methoxy-2(5H)-furanone], the responders at 50 mg/kg in series [1] (po, 50 mg/kg p.o., mice, 1 hr.) came out at 70%.

Regarding `NC(=O)N1c2ccccc2C=Cc2ccccc21` [carbamazepine, reference compound], the responders at 50 mg/kg in series [1] (po, 50 mg/kg p.o., mice, 1 hr.) was found to be 100%. For the same compound, the ED50 in series [1] (setting [5]) stood at 14.6 mg/kg. Moreover, the TD50 in series [3] came out at 100 mg/kg.

For `O=C1NC(=O)C(c2ccccc2)(c2ccccc2)N1` [diphenylhydantoin, reference compound], in series [1] (1 h, (4 h), mice), the ED50 is 9.1 mg/kg. In series [1] (po, 50 mg/kg p.o., mice, 1 hr.), the responders at 50 mg/kg came to 100%. In addition, the TD50 in series [3] worked out at 100 mg/kg.

Take `CCCC(C)C1(CC)C(=O)NC(=O)NC1=O` (stereo not shown) [pentobarbital, reference compound]: the ED50 in series [1] (sc, 1 h) was 35.2 mg/kg. In addition, in series [3] (setting [6]), the TD50 came out at 60 mg/kg.

`CCC1(c2ccccc2)C(=O)NC(=O)NC1=O` [phenobarbital, reference compound]: in series [1] (po, 1 h), the ED50 came to 19.2 mg/kg and the responders at 100 mg/kg turned out to be 100%. Moreover, the TD50 in series [3] (setting [6]) stood at 60 mg/kg.

With `CCCC(CCC)C(=O)O` [valproic acid, reference compound], the ED50 in series [1] (ip, 1 h) was 205 mg/kg. Further, in series [1] (po, 1 h), the responders at 100 mg/kg is 0%. Moreover, in series [3] (setting [6]), the TD50 stood at 350 mg/kg.

“threo-4-methoxy-5-(α-hydroxy-β-phenylethyl)-2(5H)-furanone [Example 104]”: the “protective action after 1 hr. (MES test)” value in series [1] (100 mg/kg p.o., mice, 1 hr., % of animals protected 100% against the extensor spasm) was 37.5%.

As to “threo-5-[1'-ethoxypropoxy-(2-chlorophenyl)-methyl]-4-methoxy-2-(5H)-furanone [Example 122]”, the “protective action after 1 hr. (MES test)” value in series [1] (50 mg/kg p.o., mice, 1 hr.) worked out at 100%.
